Measurements from US6228853A, “Pyrrolopyrrolone derivatives as inhibitors of neutrophil elastase” (Glaxo Wellcome Inc., priority 1997, dated 2001).
pIC50: −log10 of the molar value. Counter-ions that a name gives are not always drawn.

Key:
elastase = target: T1, elastase (Homo sapiens, UniProt P08246); assay: Human whole blood elastase inhibition assay; assay type: cell-based; details: heparinised, 30 minutes at 37° C.
T1 construct: fresh, heparinised human whole blood; endogenous in cells; host or cells: leukocytes (neutrophils) of fresh heparinised human whole blood
T1 sequence (P08246 30-267): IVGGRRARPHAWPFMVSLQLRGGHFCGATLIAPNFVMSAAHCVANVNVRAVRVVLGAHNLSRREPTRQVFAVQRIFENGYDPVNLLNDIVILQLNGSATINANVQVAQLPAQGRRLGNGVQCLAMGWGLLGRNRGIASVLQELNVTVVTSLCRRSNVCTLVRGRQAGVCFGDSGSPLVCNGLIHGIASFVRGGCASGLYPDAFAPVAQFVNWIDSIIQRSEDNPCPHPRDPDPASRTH
Method: Human whole blood elastase inhibition assay
Triplicate aliquots of fresh, heparinised human whole blood (200 μl) are added to appropriately diluted samples (10 μl) of compounds under test. […] Samples are mixed thoroughly by pipette, and are then incubated for 30 minutes at 37° C. Cold red cell lysis buffer (750 μl of 155 mM ammonium chloride, 0.12 mM EDTA, 10 mM potassium bicarbonate, pH 7.4) is then added. Tubes are capped, inverted several times, and maintained at 4° C. for 15 minutes, inverting every 5 minutes. After centrifugation at 250 g for 10 minutes, at 4° C., the resulting pelleted cells are washed. The wash is with saline (300 μl), followed by centrifugation at 100 g for 10 minutes at 4° C. Pellets are washed twice more, before resuspension of the final cell pellet in buffer (200 μl of 100 mM Tris, 300 mM NaCl, 1% (w/v) HTAB, pH 8.6). Samples are stored at -20° C. After freeze-thawing of the samples four times, elastase activity is determined by a calorimetric assay in 50 mM Tris, 150 mM NaCl, 0.6 mM MeO-Succ-Ala-Ala-Ala-Pro-Val-pNA at pH 8.6, measuring the rate of increase in absorbance at 405 nm.

[1] = target: T2, human neutrophil elastase (Homo sapiens, UniProt P08246); assay: In vitro assay of human neutrophil elastase; assay type: biochemical; details: in vitro elastase test; purified human neutrophil elastase 11.8 nM, pH 8.6, 15 min at 30° C., 0.6 mM MeO-succinyl-alanyl-alanyl-prolyl-valyl-p-nitroanilide
T2 sequence (P08246 30-267): T1 sequence (P08246 30-267)
Method: In vitro assays of human neutrophil elastase Assay contents: 50 mM Tris/HCl (pH 8.6) 150 mM NaCl 11.8 nM purified human neutrophil elastase Suitable concentrations of compound under test diluted with water from a 10 mM stock solution in dimethylsulphoxide. Values above are final concentrations after the addition of substrate solution (see below). The mixture above is incubated for fifteen minutes at 30° C. at which time the remaining elastase activity is measured for 10 minutes in a BioTek 340i plate-reader, after the addition of 0.6 mM MeO-succinyl-alanyl-alanyl-prolyl-valyl-p-nitroanilide. The rate of increase in absorbance at 405 nm is proportional to elastase activity. Enzyme activity is plotted against concentration of inhibitor and an IC50 determined using curve fitting software.

intracellular elastase = assay: Oral in vivo hamster model using IL-8 induced lung infiltrates for assessment of intracellular elastase inhibition; details: in vivo hamster IL-8 test, at a dose of less than 10 mg/kg
Method: In vivo activity of inhibitors of human neutrophil elastase:
An oral in vivo model using IL-8 induced lung infiltrates for the assessment of intracellular elastase inhibition
Adult hamsters (100-150 g) are randomised into groups (n=4) and fasted overnight. Under gaseous anaesthetic (3% isofluorane) animals are dosed orally with 1 mL/100 g water as vehicle or containing predissolved compounds. Either at the same time, or subsequently under anaesthetic, animals are dosed intratracheally with 1 ug recombinant human IL-8 in 100 uL sterile saline. Six hours after IL-8 dosing animals are sacrificed using intraperitoneal pentobarbitone. The lungs are lavaged with 2×2.5 mL sterile saline and femurs are removed by dissection.
Intracellular elastase is prepared from neutrophils collected by lavage and from femoral bone marrow. This is achieved by sonication of the neutrophils and centrifugation to yield intracellular granules. These are disrupted by freeze/thawing and sonication. Elastase and myeloperoxidase assays are then performed on these samples to assess the efficacy of the compounds and to normalise for neutrophil recovery.

SMILES | pIC50 (elastase) | pIC50 [1] | duration of action (intracellular elastase)
CC(C)[C@H]1C(=O)N(S(C)(=O)=O)[C@H]2CCN(C(=O)C3CN(Cc4ccccc4)C3)[C@H]12 (relative stereo) [Example 2, rel-(3R,3aR,6aS)-4-(1-Benzylazetidine-3-carbonyl)-3-isopropyl-1-methanesulfonyl-hexahydro-pyrrolo[3,2-b]pyrrol-2-one hydrochloride] | 6.09 | 6.64 | 
CC(C)[C@H]1C(=O)N(S(C)(=O)=O)[C@H]2CCN(C(=O)C3CN(CC(C)(C)C)C3)[C@H]12.Cl (relative stereo) [Example 3, rel-(3R,3aR,6aS)-4-[1-(2,2-Dimethyl-propyl)-azetidine-3-carbonyl]-3-isopropyl-1-methanesulfonyl-hexahydro-pyrrolo[3,2-b]pyrrol-2-one hydrochloride] |  |  | at least 6 hours
CC(C)[C@H]1C(=O)N(S(C)(=O)=O)[C@H]2CCN(C(=O)C3CN(Cc4c(Cl)cccc4Cl)C3)[C@H]12 (relative stereo) [Example 4, rel-(3R,3aR,6aS)-4-[1-(2,6-Dichloro-benzyl)-azetidine-3-carbonyl]-3-isopropyl-1-methanesulfonyl-hexahydropyrrolo[3,2-b]pyrrol-2-one hydrochloride] | 5.92 | 6.68 | 

Continued, in another order:

pIC50 (elastase) | pIC50 [1] | SMILES | duration of action (intracellular elastase)
5.27 | 6.71 | CC(C)[C@H]1C(=O)N(S(C)(=O)=O)[C@H]2CCN(C(=O)C3CN(CC4CC4)C3)[C@H]12 (relative stereo) [Example 1, rel-(3R,3aR,6aS)-4-(1-CyclopropyImethyl-azetidine-3carbonyl)-3-isopropyl-1-methanesulfonyl-hexahydropyrrolo[3,2-b]pyrrol-2-one hydrochloride] | 
5.77 | 7.03 | CCCCN1CC(C(=O)N2CC[C@H]3[C@H]2[C@@H](C(C)C)C(=O)N3S(C)(=O)=O)C1 (relative stereo) [Example 5, rel-(3R,3aR,6aS)-4-(1-Butyazetidine-3-carbonyl)-3-isopropyl-1-methanesulfonyl-hexahydro-pyrrolo[3,2-b]pyrrol-2-one hydrochloride] | 
